The test system of one data set is rats. Put plainly: Single toxicity study, lethality by a single oral administration. In kind it is in vivo. The settings on record: single oral, 14 days. On the procedure:
(§1) A single toxicity study of the anti-dementia agent according to this invention was measured using rats. […] The lethality results by a single oral administration of DHED are as follows: […]

Test in data set [1]: as above
The data set is classed as in vivo, rats. The settings on record: rat, in vivo; after a single administration (oral). On the procedure:
as §1

Data set [2] relates to scopolamine induced amnesia. Put plainly: Passive avoidance test, scopolamine induced amnesia. The data set is classed as in vivo. The settings on record: rats. How it is done:
Male Sprague-Dawley rates weighing 200~250 g (12~16 weeks) which had been maintained on a 12 h/12 h light-dark cycle were used for a passive avoidance test. Food and water were available ad libitum. An automated system with a shuttle box (Model PACS-30, Columbus Instruments International Company) was used to evaluate the effects of the extracts on learning and memory essentially as described (11). The shuttle box was divided into two chambers of equal size (19"L×9"W×10.875"H). These compartments were separated by a guillotine door (3" L×2.625" W). A light chamber is equipped with an illuminator. Rats can go to the dark chamber through a guillotine door. […]
At 24 hours after the training trial, scopolamine (1 mg/kg) or the same volume of saline was intraperitoneally injected to the rats. […] At 24 hours after the acquisition trial, the rat was again placed in the light compartment and latency to enter the dark compartment was measured for 180 sec (retention trial).
To investigate the effects of repeated administration of DHED, a repeated administration of DHED was intraperitoneally given to the rats at a dose of 6.25 mg/kg. Except for the fact that DHED (6.25 mg/kg) was given to the rats once a day for 5 days before the treatment with scopolamine, the latency time was measured in the same manner as in the single administration.

The next data set deals with T1, AChE (Mus musculus, UniProt P21836).
T1 construct: The resulting supernatant was used as an AChE source; from tissue; host or cells: mouse cerebral cortex (detergent-extracted supernatant)
T1 sequence (P21836 32-614): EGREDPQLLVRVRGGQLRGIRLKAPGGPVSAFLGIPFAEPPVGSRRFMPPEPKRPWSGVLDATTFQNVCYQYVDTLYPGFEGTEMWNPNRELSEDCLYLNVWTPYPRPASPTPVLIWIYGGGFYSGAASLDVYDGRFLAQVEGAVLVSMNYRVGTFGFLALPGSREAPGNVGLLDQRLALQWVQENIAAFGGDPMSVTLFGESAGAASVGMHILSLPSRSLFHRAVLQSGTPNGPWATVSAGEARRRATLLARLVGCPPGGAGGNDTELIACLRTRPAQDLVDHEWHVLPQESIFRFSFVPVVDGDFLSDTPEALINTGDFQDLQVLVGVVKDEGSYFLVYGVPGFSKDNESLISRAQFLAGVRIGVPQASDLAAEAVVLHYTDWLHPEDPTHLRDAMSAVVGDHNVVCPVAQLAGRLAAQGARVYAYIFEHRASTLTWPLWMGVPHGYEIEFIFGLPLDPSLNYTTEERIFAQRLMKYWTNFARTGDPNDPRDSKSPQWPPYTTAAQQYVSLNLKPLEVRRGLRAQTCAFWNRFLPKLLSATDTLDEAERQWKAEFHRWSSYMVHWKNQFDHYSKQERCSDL
In words: Determination of AChE inhibitory activity (Ellman reagent, acetylthiocholine iodide). The data set is classed as biochemical, mice. How it is done:
In order to determine AChE inhibitory activity on each of the 20 subfractions obtained from EXAMPLE 1, 10 volumes of phosphate buffer solution (12.5 mM phosphate buffer solution at pH 7.0, including 400 mM NaCl) was added to the cerebral cortex of mice, homogenized in a Potter-Elvehjem homogenizer and centrifuged at 1,000 g for 10 min to obtain the supernatant. After adding homogenized buffer containing 0.5% triton X-100 to the supernatant, the mixtures were stirred for 30 min and centrifuged again at 10,000 for 10 min. The resulting supernatant was used as an AChE source. All extract steps were carried out at 4° C.
The freeze-dried 20 subfraction extracts of EXAMPLE 1 were initially dissolved in small amounts of distilled water and DMSO. The solution was diluted at a concentration of 200 μg/ml in phosphate buffer (100 mM sodium phosphate, pH 8.0; hereinafter called "buffer solution I"). 1.5 ml of each extract was mixed with 1.5 ml of buffer solution I, 20 μl of 75 mM acetylthiocholine iodide solution and 100 μl of buffered Ellmans reagent [10 mM DTNB (5,5-dithiobis-(2-nitrobenzoic acid)) and 17.85 mM NaHCO3 ] and incubated at 25° C. for 10 min. Absorbance was read at 410 nm immediately after adding an enzyme to the above reaction mixtures. Reading was repeated for 5 min at 30 sec intervals in order to determine AChE inhibitory activity on each subfraction. A blank control reaction was measured by substituting saline for the enzyme.
AChE activity was calculated with the absorption coefficient […]. The inhibition efficacy was expressed as a percentage of enzyme activity inhibited compared with the control value (100%).
All experiments were repeated five times, and the results were analyzed by a Wilcoxon-rank sum test and Median 2-sample test.

Structures can show the parent of a compound that is named as a salt.

Broadly, the LD50 is the dose expected to kill half of the subjects tested. High values mean a less toxic substance, low ones a more toxic substance. For the compound `C[n+]1c2n(c(=O)c3ccccc31)CCc1c-2[nH]c2ccccc12` [DHED, dehydroevodiamine-HCl], the Mortality with rats (female, 1,000 mg/kg) was 1/5; in the data set on rats (female, 1,500 mg/kg), 2/5; in the data set on rats (female, 2,000 mg/kg) it was 0/5; with rats (female, 3,000 mg/kg), 5/5; with rats (female, 4,000 mg/kg), 5/5; with rats (male, 1,000 mg/kg), 0/5. Moreover, the Mortality was 0/5 in the data set on rats (male, 1,500 mg/kg); 5/5 with rats (male, 2,000 mg/kg); 4/5 in the data set with rats (male, 3,000 mg/kg); 5/5 in the data set on rats (male, 4,000 mg/kg). In data set [1], this compound registered an LD50 of 2000 mg/kg. For the same compound, in data set [2] (6.25 mg/kg intraperitoneally once a day for 5 days before scopolamine 1 mg/kg, FIG. 6), the “memory enhancement (latency in retention trial), repeated administration” value is “may improve memory enhancement”. The “memory enhancement (latency in retention trial), single administration” value in data set [2] (6.25 mg/kg intraperitoneally, single, scopolamine 1 mg/kg, FIG. 5) is recorded as “significant memory enhancement”. Moreover, the IC50 on AChE (AChE source from cerebral cortex of mice, FIG. 3, read-out: concentration required for 50% enzyme inhibition (IC50) of AChE) was 37.8 µM. Moreover, the “inhibitory effect on AChE, dose dependence” value against AChE (FIG. 3) is “strong inhibitory effect on AChE in a dose-dependent manner”. Besides, the “manner of AChE inhibition (Lineweaver-Burke plots)” value on AChE (substrate 23 to 230 μM, DHED 40 μM, FIG. 4) was “non-competitive”.

The values are drawn from patent US5859016A, “Memory enhancing and anti-dementia agent containing dehydroevodiamine HC1 as active ingredient” (priority 1995, dated 1999).
